Assay results reported in article PMC4604124, “In Vitro Characterization of the Pharmacological Properties of the Anti-Cancer Chelator, Bp4eT, and Its Phase I Metabolites” (PLoS ONE, 2015).
Values joined by “and” are separate entries in the source; they are usually repeats but may differ in a detail not shown here. Identical values can stand only once. Like-named read-outs stand apart in the source and are kept apart here.

Tests used:
[1] = tested on: cancer cells (HL-60, MCF-7, HCT116, A549) and non-cancerous cells (H9c2, 3T3); assay: MTT cytotoxicity assay, summary over the cell line panel; format: cell-based; settings: for IC50: 72 h
Protocol: For cytotoxicity experiments, cancer cells were seeded at a density of 5,000 (MCF-7), 10,000 (HL-60) or 2,000 cells/well (HCT116 and A549) in 96-well plates (TPP) for 24 h/37°C prior to the addition of examined agents. The non-cancerous cells, 3T3 and H9c2 cells, were cultured for 24 h/37°C in 96-well plates at a density of 10,000 cells/well, the medium was then changed to serum- and pyruvate-free DMEM (Sigma-Aldrich) and incubated with the cells for another 24 h/37°C. The cytotoxic effects of Bp4eT and its metabolites were studied at different concentrations after a 72 h/37°C incubation. In order to aid the dissolution of the lipophilic ligands, 0.1% dimethyl sulfoxide (v/v) (DMSO; Sigma-Aldrich) was present in the culture medium of all groups. At this concentration, DMSO had no effect on cellular proliferation or viability.
The viability of cells were determined using an MTT assay (Sigma-Aldrich) according to previously established methods. The optical density of soluble MTT was measured at λ = 570 nm, subtracting the λ = 690 nm background using a Tecan Infinite 200M plate reader (Tecan Group, Männedorf, Switzerland). The viability or proliferation of experimental groups was expressed as a percentage of the untreated controls (100%).
SigmaStat for Windows 3.5 (Systat Software, San Jose, CA, USA) statistical software package was utilized to analyze results. The data are expressed as the mean ± SD of a given number of experiments. Statistical significance was determined using a one-way ANOVA with a Bonferroni post-hoc test or Student’s t-test. The results were considered to be statistically significant when p < 0.05. The IC50 values were calculated using CalcuSyn 2.0 software (Biosoft, Cambridge, UK). Cell cycle analysis was evaluated using MultiCycle AV Software (Phoenix Flow Systems, San Diego, CA, USA).

[2] = tested on: MCF-7 cells prelabeled with 59Fe2-transferrin; assay: Mobilization (efflux) of cellular 59Fe; format: cell-based, human; set-up: Efflux 59Fe / Efflux 59Fe, Ave: unit not given here; settings: for Efflux 59Fe, Ave: average of all replicates; for Efflux 59Fe: single replicate (three per date)
Description: (§1) Human transferrin (Sigma) was labeled with ^56Fe or ^59Fe (PerkinElmer, Massachusetts, USA) to produce ^56Fe2-transferrin or ^59Fe2-transferrin (^59Fe2-Tf), respectively, with a final specific activity of 500 pCi/pmol Fe, as previously described. Unbound ^59Fe was removed by exhaustive vacuum dialysis against a large excess of 0.15 M NaCl buffered to pH 7.4 with 1.4% NaHCO3 by standard methods.
To examine the ability of studied compounds to mobilize cellular ^59Fe from MCF-7 cells, iron efflux experiments were performed using established techniques. In brief, after pre-labeling confluent MCF-7 cells on 6-well plates with 0.75 μM ^59Fe2-Tf for 3 h/37°C, the cells were washed four times with ice-cold PBS and then subsequently incubated with 25 μM of Bp4eT or its metabolites for 3 h/37°C. The overlying medium containing released ^59Fe was then decanted from the cells. Radioactivity was measured in both the cells and the supernatant using a γ-scintillation counter (Wallac Wizard 3, Turku, Finland).

MCF-7 cells [3] = assay: Cellular 59Fe uptake from 59Fe2-transferrin; format: cell-based, human; set-up: key to Uptake 59Fe, Ave / Uptake 59Fe: % of internalized 59Fe in untreated control cells; settings: for Internalized 59Fe uptake, % of the control: 25 μM, 3 h/37°C, MCF-7, 0.75 μM 59Fe2-Tf; for Uptake 59Fe, Ave: average of all replicates; for Uptake 59Fe, Ave / Uptake 59Fe: Control Ave = 100; for Uptake 59Fe: single replicate (three per date)
Description: as §1
The ability of the chelators to prevent cellular ^59Fe uptake from ^59Fe2-transferrin was examined using standard techniques. In brief, confluent MCF-7 cells in 6-well plates were incubated with 0.75 μM ^59Fe2-Tf for 3 h/37°C in the presence of Bp4eT or its metabolites (25 μM). The cells were then washed four times with ice-cold PBS and the level of internalized ^59Fe was determined by incubating the cell monolayer for 30 min/4°C with the general protease, Pronase (1 mg/mL; Sigma-Aldrich). The cells were then removed from the monolayer with a plastic spatula on ice and centrifuged for 1 min/12,000 x g/4°C. The supernatant represents membrane-bound, Pronase-sensitive ^59Fe that was released by the protease, while the Pronase-insensitive fraction represents internalized ^59Fe. The amount of internalized ^59Fe was expressed as a percentage of ^59Fe internalized by control (untreated) cells.

MCF-7 cells [4] = assay: Mitochondrial morphology, MitoTracker Green FM; format: cell-based, human; settings: 10 or 100 nM, 72 h
Protocol: Markers used to assess autophagy/apoptosis/necrosis in MCF-7 cells and changes of lysosomal and mitochondrial morphology were observed using an Eclipse Ti inverted epifluorescence microscope (Nikon, Tokyo, Japan), that was equipped with a cooled digital camera Zyla 5.5 sCMOS (Andor Technology, Belfast, UK), and NIS-Elements C 4.1 software (Laboratory Imaging, Prague, Czech Republic). The MCF-7 cells were seeded in 6-well plates with cover slips on the bottom at a density of 150,000 cells/well and incubated as described above in the presence or absence of 10 or 100 nM Bp4eT.
To determine the effect of Bp4eT on mitochondrial morphology, the cells were incubated with MitoTracker® Green FM (0.25 μM; λex = 490 nm; λem = 516 nm; Molecular Probes) for 10 min/37°C. The cells were then washed with fresh medium and the images captured using the microscope described above.

LC3-II = assay: Western blot and densitometry of LC3-I/II (autophagy); format: cell-based, human; settings: for densitometry WB, relative to NT = 1: single blot
Description: Established protocols were used to prepare cell lysates and perform immunoblot analysis. Primary antibodies used include: rabbit LC3 (Cat. #: MBPM036; 1:2,000) from Abacus (Brisbane, Australia) and mouse β-actin (Cat. #: A1978, 1:10,000) from Sigma-Aldrich. The following secondary antibodies were utilized: horseradish peroxidase (HRP)-conjugated anti-rabbit (Cat. #: A6154, […]) and anti-mouse (Cat. #: A4416, 1:10,000) antibodies from Sigma-Aldrich. To ensure equal loading of proteins, membranes were probed for β-actin.

[5] = Supplementary Fig 2, 5uM (5M [sic] for Bp4eT)
[6] = Supplementary Fig 2, Baf+, 10nM
[7] = Supplementary Fig 2, Baf+, 100nM
[8] = Supplementary Fig 2, Baf+, 5uM (5M [sic] for Bp4eT)

With CCN=CNN=C(c1ccccc1)c1ccccn1 [Bp4eA, N ^3-ethyl-N ^1-[phenyl(pyridin-2-yl)methylene]formamidrazone] the IC50 ([1]; HL-60, MCF-7, HCT116, A549, read-out: IC50, range over cancer cells) was 52 to 207 µM, the “Efflux 59Fe, Ave” value [2] was 3.53 and the “Efflux 59Fe” value [2] was 4.0325 and 2.6377 and 3.5208 and 3.7889 and 3.2967 and 3.9821 and 3.9608 and 3.1218 and 3.4276. The “Internalized 59Fe uptake, % of the control” value (MCF-7 cells [3]) was “comparable to the untreated control”, the “Uptake 59Fe, Ave” value (MCF-7 cells [3]) was 93.4629 and the “Uptake 59Fe” value (MCF-7 cells [3]) was 92.0297 and 96.1364 and 98.7564 and 74.0112 and 96.1871 and 80.6939 and 103.039 and 106.85.
With CCNC(=S)NN=C(c1ccccc1)c1ccccn1 [Bp4eT, 2-benzoylpyridine 4-ethyl-3-thiosemicarbazone] the IC50 ([1]; HL-60, MCF-7 and HCT116 cells, read-out: IC50, range over cell lines) was 0.003 to 0.015 µM, the “Therapeutic indices, range” value ([1]; towards HL-60, MCF-7 and HCT116 cancer cells) was 34.9–436.3 and the “Release of cellular 59Fe, % of total cellular 59Fe” value ([2]; 25 μM, 3 h/37°C, MCF-7) was 46.4%. The “Efflux 59Fe, Ave” value [2] was 46.4439, the “Efflux 59Fe” value [2] was 48.2798 and 45.5975 and 45.2039 and 47.6936 and 45.8687 and 45.6484 and 48.9726 and 45.6298 and 45.1012 and the “Internalized 59Fe uptake, % of the control” value (MCF-7 cells [3]) was 11.5%. The “Uptake 59Fe, Ave” value (MCF-7 cells [3]) was 11.5476, the “Uptake 59Fe” value (MCF-7 cells [3]) was 9.2904 and 11.2475 and 13.4264 and 10.306 and 10.873 and 13.9435 and 11.6905 and 10.1589 and 12.9919 and the Mitochondrial morphology (MCF-7 cells [4]) was “more swollen and enlarged”. For the same molecule, the “LC3II expression with Baf A1 relative to Baf A1 and control” value (LC3-II; 24 h/37°C, MCF-7, agent at all concentrations (10 nM– 5 μM), Baf A1 100 nM) was “did not lead to a significant (p > 0.05) increase”, the “LC3-II levels upon co-incubation with Baf A1, compared to Baf A1 alone” value (LC3-II; 72 h/37°C, MCF-7, Baf A1 100 nM, Bp4eT 10 and 100 nM, Dp44mT 100 nM) was “significant (p < 0.001–0.05) suppression” and the “densitometry WB, relative to NT = 1, Average” value (LC3-II; Fig 7E, 10nM) was 6.247. For the same molecule, the “densitometry WB, relative to NT = 1” value (LC3-II; Fig 7E, 10nM) was 4.981 and 5.294 and 8.4664, the “densitometry WB, relative to NT = 1, Average” value (LC3-II; Fig 7E, 100nM) was 6.003 and the “densitometry WB, relative to NT = 1, Average” value (LC3-II; Supplementary Fig 2, 10nM) was 1.7596. The “densitometry WB, relative to NT = 1, Average” value (LC3-II; Supplementary Fig 2, 100nM) was 0.8507, the “densitometry WB, relative to NT = 1, Average” value (LC3-II; [5]) was 0.7357 and the “densitometry WB, relative to NT = 1” value (LC3-II; [5]) was 0.9358 and 0.7729 and 0.4982. The “densitometry WB, relative to NT = 1, Average” value (LC3-II; [6]) was 143.432, the “densitometry WB, relative to NT = 1” value (LC3-II; [6]) was 159.536 and 131.647 and 139.114 and the “densitometry WB, relative to NT = 1, Average” value (LC3-II; [7]) was 74.7567. For the same molecule, the “densitometry WB, relative to NT = 1” value (LC3-II; [7]) was 63.4737 and 60.9216 and 99.8746, the “densitometry WB, relative to NT = 1, Average” value (LC3-II; [8]) was 159.207 and the “densitometry WB, relative to NT = 1” value (LC3-II; [8]) was 188.04 and 116.854 and 172.727. For the same molecule, the “LC3-II levels compared to the control” value (LC3-II; agent alone, 72 h/37°C, MCF-7, Bp4eT 10 and 100 nM, Dp44mT 100 nM, Baf A1 100 nM) was “slight, but significant (p < 0.05) increase”.
With CCNC(=O)NN=C(c1ccccc1)c1ccccn1 [E-Bp4eS, 2-benzoylpyridine 4-ethylsemicarbazone] the “Efflux 59Fe, Ave” value [2] was 3.661, the “Efflux 59Fe” value [2] was 4.9211 and 3.6997 and 3.3917 and 3.5987 and 3.8929 and 3.2529 and 3.6068 and 3.4574 and 3.1235 and the “Uptake 59Fe, Ave” value (MCF-7 cells [3]) was 105.146. For the same molecule, the “Uptake 59Fe” value (MCF-7 cells [3]) was 102.106 and 110.477 and 102.867 and 98.5761 and 110.59 and 101.139 and 107.081 and 112.704 and 100.772.
For CCNC(=O)NN=C(c1ccccc1)c1ccccn1 [Z-Bp4eS, 2-benzoylpyridine 4-ethylsemicarbazone], the “Efflux 59Fe, Ave” value [2] was 3.856, the “Efflux 59Fe” value [2] was 5.4747 and 4.265 and 4.3539 and 3.0981 and 3.2068 and 3.9182 and 3.1551 and 3.9954 and 3.2369 and the “Uptake 59Fe, Ave” value (MCF-7 cells [3]) was 99.1556. The “Uptake 59Fe” value (MCF-7 cells [3]) was 95.0144 and 99.433 and 101.961 and 99.9491 and 96.6715 and 101.111 and 99.7324 and 96.809 and 101.719.
